Results from patent US20220363667A1 (Nippon Chemiphar Co., Ltd., priority 2018, published 2022).
Structures can show the parent of a compound that is named as a salt.

Each compound was assayed on SD rats (assay: Rat formalin test). Details: po, 30 mg/kg orally once, pain behavior time from 15 to 30 minutes after formalin administration vs vehicle group, read-out: Inhibition ratio (pain behavior inhibition ratio).
Format: in vivo
Protocol: 30 mg/kg of a vehicle or a test substance was orally administrated to SD rats once, and according to the method described in McNamara C. R., Mandel-Brehm J., Bautista D. M., Siemens J., Deranian K. L., Zhao M., Hayward N. J., Chong J. A., Julius D., Moran M. M., Fanger C. M.: TRPA1 mediates formalin-induced pain. Proc. Natl. Acad. Sci. U.S.A. 104, 2007, 13525-13530, 50 μL of a 2.0% formalin solution as a pain-inducing substance was subcutaneously administered under the skin of the plantar plate of the right hind limb of each rat.
Regarding the evaluation, the pain behavior inhibition ratio was determined from the pain behavior time of each test substance-administered group with respect to the pain behavior time of the vehicle-administered group for 15 minutes measured from 15 minutes to 30 minutes after the administration.
With `O=C(Cc1ccc(N2CCS(=O)(=O)CC2)cc1)N[C@@H]1CCN(c2cncc(C(F)(F)F)c2)C1` [Example 23, (R)-2-(4-(1,1-dioxidethiomorpholino)phenyl)-N-(1-(5-(trifluoromethyl)pyridin-3-yl)pyrrolidin-3-yl)acetamide] the inhibition in vivo at 30 mg/kg was < 10%. `O=C(Cc1ccc(C(F)(F)F)cc1F)N[C@@H]1CCN(c2cncc(C(F)(F)F)c2)C1` [Example 141, (R)-2-(2-fluoro-4-(trifluoromethyl)phenyl)-N-(1-(5-(trifluoromethyl)pyridin-3-yl)pyrrolidin-3-yl)acetamide] was tested, and the inhibition in vivo at 30 mg/kg was < 10%. `CC(C)c1ccc(CC(=O)N[C@@H]2CCN(c3cncc(C(F)(F)F)c3)C2)cc1` [Example 4, (R)-2-(4-isopropylphenyl)-N-(1-(5-(trifluoromethyl)pyridin-3-yl)pyrrolidin-3-yl)acetamide] was tested, and the inhibition in vivo at 30 mg/kg was ≥ 20%. `CC(C)c1ccc(CC(=O)NC2CCN(c3cncc(C(F)(F)F)c3)CC2)cc1` [Example 109, 2-(4-Isopropylphenyl)-N-(1-(5-(trifluoromethyl)pyridin-3-yl)piperidin-4-yl)acetamide] was tested, and the inhibition in vivo at 30 mg/kg was ≥ 20%. With `O=C(Cc1ccc2cc[nH]c2c1)N[C@@H]1CCN(c2cncc(C(F)(F)F)c2)C1` [Example 124, (R)-2-(1H-indol-6-yl)-N-(1-(5-(trifluoromethyl)pyridin-3-yl)pyrrolidin-3-yl)acetamide] the inhibition in vivo at 30 mg/kg was ≥ 20%. In the case of `COc1ncc(N2CC[C@@H](NC(=O)Cc3ccc(C(C)C)cc3)C2)cc1C(F)(F)F` [Example 110, (R)-2-(4-isopropylphenyl)-N-(1-(6-methoxy-5-(trifluoromethyl)pyridin-3-yl)pyrrolidin-3-yl)acetamide], the inhibition in vivo at 30 mg/kg is reported as ≥ 20%. `CC(C)c1ccc(CC(=O)NC2CN(c3cncc(C(F)(F)F)c3)C2)cc1` [Example 117, 2-(4-Isopropylphenyl)-N-(1-(5-(trifluoromethyl)pyridin-3-yl)azetidin-3-yl)acetamide] was tested, and the inhibition in vivo at 30 mg/kg was ≥ 20%. With `O=C(Cc1ccc(C(F)(F)F)cc1)N[C@@H]1CCN(c2cncc(C(F)(F)F)n2)C1` [Example 11, (R)-2-(4-(trifluoromethyl)phenyl)-N-(1-(6-(trifluoromethyl)pyrazin-2-yl)pyrrolidin-3-yl)acetamide] the inhibition in vivo at 30 mg/kg was ≥ 20%. `O=C(Cc1ccc(C2CC2)cc1)N[C@H]1CN(c2nc(C(F)(F)F)cs2)CC12CC2` [Example 8, (R)-2-(4-cyclopropylphenyl)-N-(5-(4-(trifluoromethyl)thiazol-2-yl)-5-azaspiro[2.4]heptan-7-yl)acetamide] was tested, and the inhibition in vivo at 30 mg/kg was < 10%. For `O=C(Cc1ccc(C2CC2)cc1)N[C@H]1CN(c2cncc(C(F)(F)F)c2)C[C@@H]1O` [Example 5, 2-(4-Cyclopropylphenyl)-N-((3S,4S)-4-hydroxy-1-(5-(trifluoromethyl)pyridin-3-yl)pyrrolidin-3-yl)acetamide], the inhibition in vivo at 30 mg/kg was ≥ 20%. With `N#Cc1ncc(N2CC[C@@H](NC(=O)Cc3ccc(C4CC4)cc3)C2)cc1C(F)(F)F` [Example 12, (R)—N-(1-(6-cyano-5-(trifluoromethyl)pyridin-3-yl)pyrrolidin-3-yl)-2-(4-cyclopropylphenyl)acetamide] the inhibition in vivo at 30 mg/kg was 10 to 20%. With `CC(C)c1ccc(CC(=O)N[C@@H]2CCN(c3nc(C(F)(F)F)cs3)C2)cc1` [Example 112, (R)-2-(4-isopropylphenyl)-N-(1-(4-(trifluoromethyl)thiazol-2-yl)pyrrolidin-3-yl)acetamide] the inhibition in vivo at 30 mg/kg was ≥ 20%. For `O=C(N[C@@H]1CCN(c2cncc(C(F)(F)F)c2)C1)[C@H]1C[C@@H]1c1nc2ccccc2[nH]1` [Example 71, (1S,2S)-2-(1H-benzo[d]imidazol-2-yl)-N—((R)-1-(5-(trifluoromethyl)pyridin-3-yl)pyrrolidin-3-yl)cyclopropane-1-carboxyamide], the inhibition in vivo at 30 mg/kg was < 10%. With `O=C(N[C@@H]1CCN(c2cncc(C(F)(F)F)c2)C1)C1CC1c1ccc(Br)cc1` (single isomer, unassigned) [Example 100A] the inhibition in vivo at 30 mg/kg was ≥ 20%. `O=C(Cc1ccc2ncccc2c1)N[C@@H]1CCN(c2cncc(C(F)(F)F)c2)C1` [Example 77, (R)-2-(quinolin-6-yl)-N-(1-(5-(trifluoromethyl)pyridin-3-yl)pyrrolidin-3-yl)acetamide] was tested, and the inhibition in vivo at 30 mg/kg was < 10%. For `O=C(N[C@@H]1CCN(c2cnc(C(F)(F)F)nc2)C1)[C@H]1C[C@@H]1c1nc2ccccc2[nH]1` [Example 70, (1S,2S)-2-(1H-benzo[d]imidazol-2-yl)-N—((R)-1-(2-(trifluoromethyl)pyrimidin-5-yl)pyrrolidin-3-yl)cyclopropane-1-carboxyamide], the inhibition in vivo at 30 mg/kg was < 10%. `O=C(Cc1ccc2cc[nH]c2c1)N[C@@H]1CCN(c2ccc(C(F)(F)F)nc2)C1` [Example 85, (R)-2-(1H-indol-6-yl)-N-(1-(6-(trifluoromethyl)pyridin-3-yl)pyrrolidin-3-yl)acetamide] was tested, and the inhibition in vivo at 30 mg/kg was < 10%. In the case of `COC(=O)C1(NC(=O)Cc2ccc3cc[nH]c3c2)CCN(c2cncc(C(F)(F)F)c2)C1` (stereo not drawn) [Example 37, Methyl 3-(2-(1H-indol-6-yl)acetamido)-1-(5-(trifluoromethyl)pyridin-3-yl)pyrrolidine-3-carboxylate], the inhibition in vivo at 30 mg/kg is reported as < 10%. `O=C(N[C@@H]1CCN(c2cncc(C(F)(F)F)c2)C1)C1CC1c1cc(Cl)cc(Cl)c1` (single isomer, unassigned) [Example 99A] was tested, and the inhibition in vivo at 30 mg/kg was < 10%. In the case of `O=C(Cc1ccc2cccnc2c1)N[C@@H]1CCN(c2cncc(C(F)(F)F)c2)C1` [Example 79, (R)-2-(quinolin-7-yl)-N-(1-(5-(trifluoromethyl)pyridin-3-yl)pyrrolidin-3-yl)acetamide hydrochloride], the inhibition in vivo at 30 mg/kg is reported as < 10%. In the case of `O=C(Cc1ccc(C2CC2)cc1)N[C@@H]1CCN(c2ccc(C(F)(F)F)nc2)C1` [Example 121, (R)-2-(4-cyclopropylphenyl)-N-(1-(6-(trifluoromethyl)pyridin-3-yl)pyrrolidin-3-yl)acetamide], the inhibition in vivo at 30 mg/kg is reported as < 10%. `CC(C)c1ccc(CC(=O)N[C@@H]2CCN(c3ccc(C(F)(F)F)nc3)C2)cc1` [Example 113, (R)-2-(4-isopropylphenyl)-N-(1-(6-(trifluoromethyl)pyridin-3-yl)pyrrolidin-3-yl)acetamide] gave an inhibition in vivo at 30 mg/kg of 10 to 20%. For `NC(C(=O)N[C@@H]1CCN(c2cncc(C(F)(F)F)c2)C1)c1ccc(C2CC2)cc1` (stereo partly drawn) [Example 137, 2-amino-2-(4-cyclopropylphenyl)-N—((R)-1-(5-(trifluoromethyl)pyridin-3-yl)pyrrolidin-3-yl)acetamide], the inhibition in vivo at 30 mg/kg was ≥ 20%. For `CC(C)(O)c1ccc(CC(=O)N[C@@H]2CCN(c3cncc(C(F)(F)F)c3)C2)cc1` [Example 131, (R)-2-(4-(2-hydroxypropan-2-yl)phenyl)-N-(1-(5-(trifluoromethyl)pyridin-3-yl)pyrrolidin-3-yl)acetamide], the inhibition in vivo at 30 mg/kg was < 10%. In the case of `O=C(N[C@@H]1CCN(c2cncc(C(F)(F)F)c2)C1)[C@H]1C[C@@H]1c1nc2ccccc2o1` [Example 39, (1S,2S)-2-(benzo[d]oxazol-2-yl)-N—((R)-1-(5-(trifluoromethyl)pyridin-3-yl)pyrrolidin-3-yl)cyclopropane-1-carboxyamide], the inhibition in vivo at 30 mg/kg is reported as ≥ 20%. In the case of `N#CC1(NC(=O)Cc2ccc(C3CC3)cc2)CCN(c2cncc(C(F)(F)F)c2)C1` (stereo not drawn) [Example 36, N-(3-cyano-1-(5-(trifluoromethyl)pyridin-3-yl)pyrrolidin-3-yl)-2-(4-cyclopropylphenyl)acetamide], the inhibition in vivo at 30 mg/kg is reported as < 10%. With `CC(C)(C(=O)N[C@@H]1CCN(c2cncc(C(F)(F)F)c2)C1)c1ccc(C2CC2)cc1` [Example 135, (R)-2-(4-cyclopropylphenyl)-2-methyl-N-(1-(5-(trifluoromethyl)pyridin-3-yl)pyrrolidin-3-yl)propanamide] the inhibition in vivo at 30 mg/kg was < 10%. For `O=C(Cc1ccc(C2CC2)cc1)N[C@@H]1CCN(c2cncc(C(F)(F)F)c2)C1` [Example 1, (R)-2-(4-cyclopropylphenyl)-N-(1-(5-(trifluoromethyl)pyridin-3-yl)pyrrolidin-3-yl)acetamide], the inhibition in vivo at 30 mg/kg was ≥ 20%. In the case of `O=C(N[C@@H]1CCN(c2cncc(C(F)(F)F)c2)C1)[C@H]1C[C@@H]1c1nc2cc(F)ccc2o1` [Example 49, (1S,2S)-2-(5-fluorobenzo[d]oxazol-2-yl)-N—((R)-1-(5-(trifluoromethyl)pyridin-3-yl)pyrrolidin-3-yl)cyclopropane-1-carboxyamide], the inhibition in vivo at 30 mg/kg is reported as ≥ 20%. For `O=C(Cc1ccc(N2CCC(F)(F)C2)cc1)N[C@@H]1CCN(c2ccc(C(F)(F)F)nc2)C1` [Example 84, (R)-2-(4-(3,3-difluoropyrrolidin-1-yl)phenyl)-N-(1-(6-(trifluoromethyl)pyridin-3-yl)pyrrolidin-3-yl)acetamide], the inhibition in vivo at 30 mg/kg was < 10%. `O=C(N[C@@H]1CCN(c2ccc(C(F)(F)F)nc2)C1)[C@H]1C[C@@H]1c1nc2ccccc2[nH]1` [Example 54, (1S,2S)-2-(1H-benzo[d]imidazol-2-yl)-N—((R)-1-(6-(trifluoromethyl)pyridin-3-yl)pyrrolidin-3-yl)cyclopropane-1-carboxyamide] was tested, and the inhibition in vivo at 30 mg/kg was < 10%. With `O=C(Cc1ccc(C(F)(F)F)cc1)N[C@@H]1CCN(c2cncc(C(F)(F)F)c2)C1` [Example 123, (R)-2-(4-(trifluoromethyl)phenyl)-N-(1-(5-(trifluoromethyl)pyridin-3-yl)pyrrolidin-3-yl)acetamide] the inhibition in vivo at 30 mg/kg was ≥ 20%. In the case of `O=C(Cc1ccc(N2CCOCC2)cc1)N[C@@H]1CCN(c2cncc(C(F)(F)F)c2)C1` [Example 181, (R)-2-(4-morpholinophenyl)-N-(1-(5-(trifluoromethyl)pyridin-3-yl)pyrrolidin-3-yl)acetamide], the inhibition in vivo at 30 mg/kg is reported as ≥ 20%.
